Laboratory results published in ChEMBL document CHEMBL1201861, “Genomics of Drug Sensitity in Cancer screening data, Wellcome Trust Sanger Institute”.

Key:
Experiment in all cases: cells
[1] = system: SW684; assay type: functional, cell-based, Homo sapiens; conditions: Homo sapiens, SW684; read-out: IC50;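 also: growth inhibition of human SW684 cells, measured by a cell viability assay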
Description: SANGER: Inhibition of human SW684 cell growth in a cell viability assay.

[2] = system: GB-1; assay type: functional, cell-based, Homo sapiens; conditions: Homo sapiens, GB-1;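 also: growth of GB-1 cells judged by a viability assay, IC50 marks the concentration inhibiting growth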
Description: SANGER: Inhibition of human GB-1 cell growth in a cell viability assay.

[3] = system: TE-12; assay type: functional, cell-based, Homo sapiens; conditions: Homo sapiens, TE-12;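 also: growth inhibition of TE-12 cells, read out by a cell viability assay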
Description: SANGER: Inhibition of human TE-12 cell growth in a cell viability assay.

[4] = system: KALS-1; assay type: functional, cell-based, Homo sapiens; conditions: Homo sapiens, KALS-1; read-out: IC50;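 also: growth inhibition of KALS-1 cells, determined with a cell viability assay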
Description: SANGER: Inhibition of human KALS-1 cell growth in a cell viability assay.

[5] = system: EW-13; assay type: functional, cell-based, Homo sapiens; conditions: Homo sapiens, EW-13; read-out: IC50;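 also: growth inhibition of EW-13 cells, read out with a cell viability assay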
Description: SANGER: Inhibition of human EW-13 cell growth in a cell viability assay.

[6] = system: C2BBe1; assay type: functional, cell-based, Homo sapiens; conditions: Homo sapiens, C2BBe1;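 also: growth inhibition of C2BBe1 cells, read out through a viability assay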
Description: SANGER: Inhibition of human C2BBe1 cell growth in a cell viability assay.

[7] = system: DU-4475; assay type: functional, cell-based, Homo sapiens; conditions: Homo sapiens, DU-4475
Description: SANGER: Inhibition of human DU-4475 cell growth in a cell viability assay.

[8] = system: ES1; assay type: functional, cell-based, Homo sapiens; conditions: Homo sapiens, ES1;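 also: growth inhibition of ES1 cells, read out with a cell viability assay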
Description: SANGER: Inhibition of human ES1 cell growth in a cell viability assay.

[9] = system: BE-13; assay type: functional, cell-based, Homo sapiens; conditions: Homo sapiens, BE-13;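 also: growth inhibition of human BE-13 cells, measured with a cell viability assay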
Description: SANGER: Inhibition of human BE-13 cell growth in a cell viability assay.

[10] = system: LS-513; assay type: functional, cell-based, Homo sapiens; conditions: Homo sapiens, LS-513
Description: SANGER: Inhibition of human LS-513 cell growth in a cell viability assay.

[11] = system: A388; assay type: functional, cell-based; conditions: Homo sapiens;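 also: growth inhibition of human A388 cells, read out with a cell viability assay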
Description: SANGER: Inhibition of human A388 cell growth in a cell viability assay.

[12] = system: NCI-H1648; assay type: functional, cell-based, Homo sapiens; conditions: Homo sapiens, NCI-H1648;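 also: cell viability assay measuring inhibition of NCI-H1648 cell growth, from the Sanger screening data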
Description: SANGER: Inhibition of human NCI-H1648 cell growth in a cell viability assay.

[13] = system: NCI-H1395; assay type: functional, cell-based, Homo sapiens; conditions: Homo sapiens, NCI-H1395;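 also: cell viability assay read-out quantifying reduced proliferation of human NCI-H1395 cells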
Description: SANGER: Inhibition of human NCI-H1395 cell growth in a cell viability assay.

[14] = system: SF-126; assay type: functional, cell-based, Homo sapiens; conditions: Homo sapiens, SF-126;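 also: growth inhibition of human SF126 cells, read out with a cell viability assay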
Description: SANGER: Inhibition of human SF126 cell growth in a cell viability assay.

[15] = system: D283 Med; assay type: functional, cell-based, Homo sapiens; conditions: Homo sapiens, D283 Med
Description: SANGER: Inhibition of human D-283MED cell growth in a cell viability assay.

[16] = system: ATN-1; assay type: functional, cell-based, Homo sapiens; conditions: Homo sapiens, ATN-1;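 also: growth inhibition of human ATN-1 cells, read out with a cell viability assay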
Description: SANGER: Inhibition of human ATN-1 cell growth in a cell viability assay.

[17] = system: SF-268; assay type: functional, cell-based, Homo sapiens; conditions: Homo sapiens, SF-268;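 also: growth inhibition of SF-268 cells determined with a cell viability assay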
Description: SANGER: Inhibition of human SF268 cell growth in a cell viability assay.

[18] = system: NCI-H82; assay type: functional, cell-based, Homo sapiens; conditions: Homo sapiens, NCI-H82;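 also: growth inhibition of NCI-H82 cells, measured with a cell viability readout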
Description: SANGER: Inhibition of human NCI-H82 cell growth in a cell viability assay.

[19] = system: ETK-1; assay type: functional, cell-based, Homo sapiens; conditions: Homo sapiens, ETK-1;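 also: growth inhibition of human ETK-1 cells, read out with a cell viability assay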
Description: SANGER: Inhibition of human ETK-1 cell growth in a cell viability assay.

[20] = system: A498; assay type: functional, cell-based, Homo sapiens; conditions: Homo sapiens, A498;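 also: growth inhibition of human A498 cells, read out with a cell viability assay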
Description: SANGER: Inhibition of human A498 cell growth in a cell viability assay.

[21] = system: KU812 cell line; assay type: functional, cell-based, Homo sapiens; conditions: Homo sapiens, KU812;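 also: growth inhibition of KU812 cells, read out with a cell viability assay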
Description: SANGER: Inhibition of human KU812 cell growth in a cell viability assay.

[22] = system: TE-11; assay type: functional, cell-based; conditions: Homo sapiens;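 also: growth inhibition of human TE-11 cells, read out by a cell viability assay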
Description: SANGER: Inhibition of human TE-11 cell growth in a cell viability assay.

[23] = system: HCE-T; assay type: functional, cell-based, Homo sapiens; conditions: Homo sapiens, HCE-T;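 also: cell viability assay read-out, reporting inhibition of HCE-T cell growth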
Description: SANGER: Inhibition of human HCE-T cell growth in a cell viability assay.

[24] = system: COLO-824; assay type: functional, cell-based, Homo sapiens; conditions: Homo sapiens, COLO-824
Description: SANGER: Inhibition of human COLO-824 cell growth in a cell viability assay.

[25] = system: EOL1; assay type: functional, cell-based, Homo sapiens; conditions: Homo sapiens, EOL1;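 also: growth inhibition of EoL-1 cells, read out by a cell viability assay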
Description: SANGER: Inhibition of human EoL-1-cell cell growth in a cell viability assay.

[26] = system: ES8; assay type: functional, cell-based, Homo sapiens; conditions: Homo sapiens, ES8;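 also: growth inhibition of human ES8 cells, read out with a cell viability assay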
Description: SANGER: Inhibition of human ES8 cell growth in a cell viability assay.

[27] = system: HDLM-2; assay type: functional, cell-based, Homo sapiens; conditions: Homo sapiens, HDLM-2;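 also: cell viability assay measuring suppression of HDLM-2 proliferation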
Description: SANGER: Inhibition of human HDLM-2 cell growth in a cell viability assay.

[28] = system: A704; assay type: functional, cell-based; conditions: Homo sapiens;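 also: growth inhibition of human A704 cells, read out with a cell viability assay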
Description: SANGER: Inhibition of human A704 cell growth in a cell viability assay.

[29] = system: TK-10; assay type: functional, cell-based, Homo sapiens; conditions: Homo sapiens, TK-10;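 also: growth inhibition of TK-10 cells, read out in a cell viability assay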
Description: SANGER: Inhibition of human TK10 cell growth in a cell viability assay.

[30] = system: ML-2; assay type: functional, cell-based, Homo sapiens; conditions: Homo sapiens, ML-2;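 also: growth inhibition of ML-2 cells, measured with a cell viability readout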
Description: SANGER: Inhibition of human ML-2 cell growth in a cell viability assay.

[31] = system: BB30-HNC; assay type: functional, cell-based, Homo sapiens; conditions: Homo sapiens, BB30-HNC;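 also: growth inhibition of the cultured cell line, read out by a cell viability assay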
Description: SANGER: Inhibition of human BB30-HNC cell growth in a cell viability assay.

[32] = system: Becker; assay type: functional, cell-based, Homo sapiens; conditions: Homo sapiens, Becker;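 also: growth inhibition of Becker cells, read out with a cell viability assay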
Description: SANGER: Inhibition of human Becker cell growth in a cell viability assay.

[33] = system: MC116; assay type: functional, cell-based, Homo sapiens; conditions: Homo sapiens, MC116;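 also: growth inhibition of MC116 cells, read out with a cell viability assay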
Description: SANGER: Inhibition of human MC116 cell growth in a cell viability assay.

[34] = system: RKO; assay type: functional, cell-based, Homo sapiens; conditions: Homo sapiens, RKO;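 also: growth inhibition of human RKO cells, read out with a cell viability assay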
Description: SANGER: Inhibition of human RKO cell growth in a cell viability assay.

[35] = system: MMAC-SF; assay type: functional, cell-based; conditions: Homo sapiens;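 also: growth inhibition of human MMAC-SF cells, read out with a cell viability assay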
Description: SANGER: Inhibition of human MMAC-SF cell growth in a cell viability assay.

[36] = system: A101D; assay type: functional, cell-based, Homo sapiens; conditions: Homo sapiens, A101D;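 also: growth inhibition of the cell line, measured with a viability assay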
Description: SANGER: Inhibition of human A101D cell growth in a cell viability assay.

[37] = system: COLO-684; assay type: functional, cell-based, Homo sapiens; conditions: Homo sapiens, COLO-684
Description: SANGER: Inhibition of human COLO-684 cell growth in a cell viability assay.

[38] = system: SH-4; assay type: functional, cell-based; conditions: Homo sapiens;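 also: growth inhibition of SH-4 cells, read out with a cell viability assay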
Description: SANGER: Inhibition of human SH-4 cell growth in a cell viability assay.

[39] = system: LS-123; assay type: functional, cell-based, Homo sapiens; conditions: Homo sapiens, LS-123
Description: SANGER: Inhibition of human LS-123 cell growth in a cell viability assay.

[40] = system: CAS-1; assay type: functional, cell-based, Homo sapiens; conditions: Homo sapiens, CAS-1;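 also: growth inhibition of CAS-1 cells, measured with a cell viability assay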
Description: SANGER: Inhibition of human CAS-1 cell growth in a cell viability assay.

[41] = system: SBC-1; assay type: functional, cell-based, Homo sapiens; conditions: Homo sapiens, SBC-1;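 also: cell viability assay measuring growth inhibition of the SBC-1 cell line, IC50 being the concentration that halves growth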
Description: SANGER: Inhibition of human SBC-1 cell growth in a cell viability assay.

[42] = system: Ramos-2G6-4C10; assay type: functional, cell-based, Homo sapiens; conditions: Homo sapiens, Ramos-2G6-4C10;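 also: growth inhibition of the cell line, measured by a cell viability read-out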
Description: SANGER: Inhibition of human Ramos-2G6-4C10 cell growth in a cell viability assay.

[43] = system: SW 954; assay type: functional, cell-based, Homo sapiens; conditions: Homo sapiens, SW 954;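 also: growth inhibition of SW954 human cancer cells, read out as cell viability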
Description: SANGER: Inhibition of human SW954 cell growth in a cell viability assay.

[44] = system: ACN; assay type: functional, cell-based, Homo sapiens; conditions: Homo sapiens, ACN;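 also: growth inhibition of the human ACN cell line, read out via cell viability testing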
Description: SANGER: Inhibition of human ACN cell growth in a cell viability assay.

[45] = system: JVM-3; assay type: functional, cell-based, Homo sapiens; conditions: Homo sapiens, JVM-3;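 also: growth inhibition of human JVM-3 cells, read out with a cell viability assay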
Description: SANGER: Inhibition of human JVM-3 cell growth in a cell viability assay.

[46] = system: EW-3; assay type: functional, cell-based, Homo sapiens; conditions: Homo sapiens, EW-3;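 also: cell viability assay read-out, IC50 reflects inhibition of growth of the EW-3 cells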
Description: SANGER: Inhibition of human EW-3 cell growth in a cell viability assay.

[47] = system: HT; assay type: functional, cell-based, Homo sapiens; conditions: Homo sapiens, HT
Description: SANGER: Inhibition of human HT cell growth in a cell viability assay.

[48] = system: NCI-H1155; assay type: functional, cell-based, Homo sapiens; conditions: Homo sapiens, NCI-H1155;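 also: cell growth inhibition measured by a viability assay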
Description: SANGER: Inhibition of human NCI-H1155 cell growth in a cell viability assay.

[49] = system: MZ1-PC; assay type: functional, cell-based, Homo sapiens; conditions: Homo sapiens, MZ1-PC;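 also: cell viability assay measuring growth inhibition of human MZ1-PC cells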
Description: SANGER: Inhibition of human MZ1-PC cell growth in a cell viability assay.

[50] = system: SK-MEL-1; assay type: functional, cell-based, Homo sapiens; conditions: Homo sapiens, SK-MEL-1;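 also: growth inhibition of human SK-MEL-1 cells, read out by a cell viability assay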
Description: SANGER: Inhibition of human SK-MEL-1 cell growth in a cell viability assay.

## Cc1ccc(-n2nc(C(C)(C)C)cc2NC(=O)Nc2ccc(OCCN3CCOCC3)c3ccccc23)cc1 [DORAMAPIMOD]
[1]
  IC50: > 10000 nM
[2]
  IC50: > 10000 nM
[3]
  IC50: > 10000 nM
[4]
  IC50: > 10000 nM
[5]
  IC50: > 10000 nM
[6]
  IC50: > 10000 nM
[7]
  IC50: > 10000 nM
[8]
  IC50: > 10000 nM
[9]
  IC50: > 10000 nM
[10]
  IC50: > 10000 nM
[11]
  IC50: > 10000 nM
[12]
  IC50: > 10000 nM
[13]
  IC50: > 10000 nM
[14]
  IC50: > 10000 nM
[15]
  IC50: > 10000 nM
[16]
  IC50: > 10000 nM
[17]
  IC50: > 10000 nM
[18]
  IC50: > 10000 nM
[19]
  IC50: > 10000 nM
[20]
  IC50: > 10000 nM
[21]
  IC50: > 10000 nM
[22]
  IC50: > 10000 nM
[23]
  IC50: > 10000 nM
[24]
  IC50: > 10000 nM
[25]
  IC50: 348 nM
[26]
  IC50: > 10000 nM
[27]
  IC50: > 10000 nM
[28]
  IC50: > 10000 nM
[29]
  IC50: > 10000 nM
[30]
  IC50: > 10000 nM
[31]
  IC50: > 10000 nM
[32]
  IC50: > 10000 nM
[33]
  IC50: > 10000 nM
[34]
  IC50: > 10000 nM
[35]
  IC50: > 10000 nM
[36]
  IC50: > 10000 nM
[37]
  IC50: > 10000 nM
[38]
  IC50: > 10000 nM
[39]
  IC50: > 10000 nM
[40]
  IC50: > 10000 nM
[41]
  IC50: > 10000 nM
[42]
  IC50: > 10000 nM
[43]
  IC50: > 10000 nM
[44]
  IC50: > 10000 nM
[45]
  IC50: > 10000 nM
[46]
  IC50: > 10000 nM
[47]
  IC50: > 10000 nM
[48]
  IC50: > 10000 nM
[49]
  IC50: > 10000 nM
[50]
  IC50: > 10000 nM

## CC1(C)CCC(c2ccc(Cl)cc2)=C(CN2CCN(c3ccc(C(=O)NS(=O)(=O)c4ccc(N[C@H](CCN5CCOCC5)CSc5ccccc5)c(S(=O)(=O)C(F)(F)F)c4)cc3)CC2)C1 [NAVITOCLAX]
[1]
  IC50: > 2000 nM
[2]
  IC50: > 2000 nM
[3]
  IC50: > 2000 nM
[4]
  IC50: > 2000 nM
[5]
  IC50: 583 nM
[6]
  IC50: > 2000 nM
[7]
  IC50: 654 nM
[8]
  IC50: > 2000 nM
[9]
  IC50: 365 nM
[10]
  IC50: > 2000 nM
[11]
  IC50: 1690 nM
[12]
  IC50: 1710 nM
[13]
  IC50: > 2000 nM
[14]
  IC50: > 2000 nM
[15]
  IC50: 177 nM
[16]
  IC50: 47.3 nM
[17]
  IC50: > 2000 nM
[18]
  IC50: > 2000 nM
[19]
  IC50: > 2000 nM
[20]
  IC50: > 2000 nM
[21]
  IC50: > 2000 nM
[22]
  IC50: > 2000 nM
[23]
  IC50: > 2000 nM
[24]
  IC50: 1020 nM
[25]
  IC50: 6.69 nM
[26]
  IC50: > 2000 nM
[27]
  IC50: > 2000 nM
[28]
  IC50: 427 nM
[29]
  IC50: > 2000 nM
[30]
  IC50: 19.8 nM
[31]
  IC50: > 2000 nM
[32]
  IC50: > 2000 nM
[33]
  IC50: > 2000 nM
[34]
  IC50: > 2000 nM
[35]
  IC50: > 2000 nM
[36]
  IC50: > 2000 nM
[37]
  IC50: > 2000 nM
[38]
  IC50: > 2000 nM
[39]
  IC50: > 2000 nM
[40]
  IC50: > 2000 nM
[41]
  IC50: 1190 nM
[42]
  IC50: 1740 nM
[43]
  IC50: > 2000 nM
[44]
  IC50: > 2000 nM
[45]
  IC50: > 2000 nM
[46]
  IC50: 80.5 nM
[47]
  IC50: > 2000 nM
[48]
  IC50: > 2000 nM
[49]
  IC50: > 2000 nM
[50]
  IC50: > 2000 nM
